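The compound was tested at five concentrations on cells cultured in 96-well plates, with a 48-hour exposure period. At the GI50, growth is halved. The concentration for full growth arrest is given as TGI.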
What was measured:
Experiment in all cases: inhibition of tumour cell growth, NCI panel, 48 h
K-562 leukemia = test system: K-562 leukemia
CCRF-CEM leukemia = test system: CCRF-CEM leukemia
OVCAR-8 ovarian = test system: OVCAR-8 ovarian
SK-MEL-28 melanoma = test system: SK-MEL-28 melanoma
SK-MEL-5 melanoma = test system: SK-MEL-5 melanoma
MDA-MB-231 breast = test system: MDA-MB-231 breast
DU-145 prostate = test system: DU-145 prostate
UACC-257 melanoma = test system: UACC-257 melanoma
MCF7 breast = test system: MCF7 breast
SR leukemia = test system: SR leukemia

Structure (SMILES) | GI50 (K-562 leukemia) [µM] | TGI (K-562 leukemia) [µM] | GI50 (CCRF-CEM leukemia) [µM] | TGI (CCRF-CEM leukemia) [µM] | GI50 (OVCAR-8 ovarian) [µM] | TGI (OVCAR-8 ovarian) [µM] | GI50 (SK-MEL-28 melanoma) [µM] | TGI (SK-MEL-28 melanoma) [µM] | GI50 (SK-MEL-5 melanoma) [µM] | TGI (SK-MEL-5 melanoma) [µM] | GI50 (MDA-MB-231 breast) [µM] | TGI (MDA-MB-231 breast) [µM] | GI50 (DU-145 prostate) [µM] | TGI (DU-145 prostate) [µM] | GI50 (UACC-257 melanoma) [µM] | TGI (UACC-257 melanoma) [µM] | GI50 (MCF7 breast) [µM] | TGI (MCF7 breast) [µM] | TGI (SR leukemia) [µM] | GI50 (SR leukemia) [µM]
COc1ccc(Cl)cc1Nc1nc(C(F)(F)F)ccc1C(=O)N/N=C/c1ccc(Cl)cc1 | 3.85 | 40.5 | 0.594 | 10.3 | 5.1 | > 100 | 74 | > 100 | 2.23 | 23.5 | 5.44 | > 100 | 7.02 | > 100 | 7.91 | > 100 | 1.05 | > 100 |  | 
Cc1cc(C2(c3cc(C)c(O)c4ncccc34)OC(=O)c3ccccc32)c2cccnc2c1O |  | > 100 |  | > 100 |  | > 100 | > 100 | > 100 |  | 0.0574 | 0.0215 | 22.7 | 0.242 | > 100 | 0.496 | > 100 |  | > 100 |  | 
CN(C)c1ccc(/C=C2\Cc3ccccc3C2=O)cc1Br |  | > 100 |  | > 100 |  | > 100 |  | > 100 |  | 76.6 |  |  |  |  |  | > 100 |  |  |  | 
NC1=NN(c2ccccc2)C(=O)C1/C(=N\NC(=O)c1cc2ccccc2cc1O)C(=O)Nc1ccc(Cl)cc1 (stereo not given) |  | > 100 |  | 24.4 |  | > 100 |  | > 100 |  | 56.5 |  |  |  |  |  | 80.4 |  |  |  | 
CC(C)c1nc(Cl)c(Cl)c(Cl)n1 |  | > 100 |  | 9.33 |  | 8.07 |  | 40.5 |  | 30.9 |  | 23.2 |  | 20.3 |  | 17.8 |  | 14.2 |  | 
CC1=CC(=O)N2[C@H](OC[C@@H]2C(C)C)O1 |  | > 100 |  | > 100 |  | > 100 |  | > 100 |  | > 100 |  |  |  |  |  | > 100 |  |  | > 100 | 
O=c1cccccc1[O-].O=c1cccccc1[O-].O=c1cccccc1[O-].[Dy+3] |  | > 100 |  | 55.2 |  | 97.6 |  | > 100 |  | 72.3 |  |  |  |  |  | > 100 |  |  |  | 
COc1cc2c(cc1OCCCN1CCN(CCCn3c4ccccc4c4ccccc43)CC1)N=C[C@@H]1CCCN1C2=O |  |  | 0.0218 | 0.118 | 0.273 | 1.55 | 0.0516 | 0.151 | 0.202 | 0.472 | 0.217 | 1.02 | 0.0335 | 1.14 | 0.209 | 0.461 | 0.0285 | 0.461 | 12.4 | 0.0206
O=C(CO[N+](=O)[O-])OCC(=O)c1ccccc1 |  | > 100 |  | > 100 |  | > 100 |  | > 100 |  |  |  |  |  |  |  | > 100 |  |  | > 100 | 
CC(C)=NO.CC(C)=NO.CC(C)=NO.CC(C)=NO.[Ti] | > 100 | > 100 | > 100 | > 100 | > 100 | > 100 | > 100 | > 100 | > 100 | > 100 |  |  |  |  | > 100 | > 100 |  |  |  | 
O=C1COc2cc3c(cc2N1)SCC(=O)N3 |  | > 100 |  | > 100 |  | > 100 |  | > 100 |  | > 100 |  |  |  |  |  | > 100 |  |  | > 100 | 
N#Cc1c(N)nc(N2CCOCC2)c(C#N)c1-c1ccc(Cl)cc1Cl | 23.9 | 99.1 | 23.2 | 75 | 18.2 | 54.5 | 18.4 | 53.1 | 14.7 | 29.2 | 15.9 | 43.7 | 24.6 | 81 | 18 | 62.4 | 8.8 | 36.2 |  | 
Cc1[nH]n(C(=O)c2ccc(Cl)cc2)c(=O)c1/C=C1\C(O)=CC(=O)c2ccccc21 |  | > 100 |  | > 100 |  | > 100 |  | > 100 |  | > 100 |  |  |  |  |  | > 100 |  |  |  | 
CC(=O)Nc1ccc(C(=O)NN2C(=O)CSC2c2ccccc2)cc1 (stereo not given) |  | > 100 |  | > 100 |  | > 100 |  | > 100 |  | > 100 |  | > 100 |  | > 100 |  | > 100 |  | > 100 |  | 
CN1C/C(=C\c2ccco2)c2nc(N)nc(-c3ccco3)c2C1 |  | > 100 |  | > 100 |  | > 100 |  | > 100 |  | > 100 |  |  |  |  |  | > 100 |  |  |  | 
CCOC(=O)Oc1ccc2[nH]c3c(C)cc(N)c(C)c3c2c1 |  | > 100 |  | > 100 |  | > 100 |  | > 100 |  | > 100 |  |  |  |  |  | > 100 |  |  | > 100 | 
COc1cccc2c(Nc3ccc(C(=O)NCCN4CCNCC4)cc3)cc(-c3ccccc3)nc12 | 27.7 | 75.3 | 30.1 | 91.7 | 39.2 | > 100 | 19 | 64.7 | 31 | > 100 | 19.9 | > 100 | 71 | > 100 | > 100 | > 100 | 23.7 | > 100 |  | 
CCOC(=O)C1C(=O)C(=O)N2CCc3c([nH]c4ccccc34)C12 (stereo not given) |  | > 100 |  | > 100 |  | > 100 |  | > 100 |  | > 100 |  |  |  |  |  |  |  |  | > 100 | 
COc1cc(COC(=O)NC(Cc2cccs2)C(=O)O)c([N+](=O)[O-])cc1OC (stereo not given) |  | > 100 |  | > 100 |  | > 100 |  | > 100 |  | > 100 |  |  |  | > 100 |  | > 100 |  | > 100 | > 100 | 
Cn1c(=O)c(-c2c(Cl)cccc2Cl)cc2cnc(Nc3ccc(N4CCOCC4)cc3)nc21 | < 0.01 | 0.0538 | 0.0272 | 0.332 | 1.09 | > 100 | 0.675 | > 100 | 0.149 | 1.34 | < 0.0169 |  |  |  |  | > 22.4 | 1.49 | > 100 | 0.471 | 0.14
Nc1ccc2ncc(Nc3ccc(Cl)c(Cl)c3)nc2c1 |  | > 100 |  | 65.6 |  | 83.3 |  | 84.1 |  | 36.1 |  |  |  |  |  | 54.6 |  |  | > 100 | 
